From ChEMBL document CHEMBL1201862, “PubChem BioAssay data set” (2004)
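Dose response: 5 concentrations. Exposure: 48 h. Format: 96-well plates. Endpoint: linear interpolation; highest concentration if not reached. GI50 marks 50% less growth.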 The source made the active and inactive calls. No stated cut-off is given here; in the data, active = GI50 up to about 1.1 µM and inactive = higher.

Columns and labels:
Assay in all cases: NCI anticancer screen, dose series, 48 h
[1] = tested on: MDA-MB-231
[2] = tested on: SK-OV-3
[3] = tested on: ACHN
[4] = tested on: CAKI-1
[5] = tested on: SNB-19
[6] = tested on: A549
[7] = tested on: RXF 393
[8] = tested on: K562
[9] = tested on: SK-MEL-28
[10] = tested on: OVCAR-8
[11] = tested on: UACC-257
[12] = tested on: SF-539
[13] = tested on: SF-295
[14] = tested on: MCF7
[15] = tested on: SN12C
[16] = tested on: SF-268
[17] = tested on: NCI-H460
[18] = tested on: EKVX
[19] = tested on: HCT-116
[20] = tested on: CCRF-CEM

Measured: GI50

O=C(CON1C(=O)c2ccccc2C1=O)c1ccccc1
inactive: [1] > 100 µM | [2] > 100 µM | [3] > 100 µM | [4] 19.1 µM | [5] > 100 µM | [6] > 100 µM | [7] 55.8 µM | [8] 45.9 µM | [9] > 100 µM | [10] > 100 µM | [11] 34.8 µM | [12] 37.5 µM | [13] > 100 µM | [14] 40.1 µM | [15] 47.1 µM | [16] > 100 µM | [17] > 100 µM | [18] > 100 µM | [19] 36.2 µM

O=C(O)C1CCN(Cc2oc(CO)cc(=O)c2O)C1 (stereo not drawn)
inactive: [1] > 100 µM | [2] > 100 µM | [3] > 100 µM | [20] > 100 µM | [4] > 100 µM | [5] > 100 µM | [6] > 100 µM | [7] > 100 µM | [8] > 100 µM | [9] > 100 µM | [10] > 100 µM | [11] > 100 µM | [13] > 100 µM | [14] > 100 µM | [15] > 100 µM | [16] > 100 µM | [17] > 100 µM | [18] > 100 µM | [19] > 100 µM

CC(C)CC(NC=O)C(=O)NC(Cc1ccccc1)NC(=O)CNC(=O)C(C)NC(=O)C(N)Cc1ccc(O)cc1 (stereo not drawn)
inactive: [1] > 100 µM | [2] > 100 µM | [3] > 100 µM | [4] > 100 µM | [5] > 100 µM | [6] > 100 µM | [7] > 100 µM | [8] > 100 µM | [9] > 100 µM | [10] > 100 µM | [12] > 100 µM | [13] > 100 µM | [14] > 100 µM | [15] > 100 µM | [16] > 100 µM | [17] > 100 µM | [18] > 100 µM | [19] > 100 µM

Cc1ccc(S(=O)(=O)SC(C)(C)C)cc1
inactive: [1] 24.7 µM | [2] > 100 µM | [3] 38.5 µM | [20] 12.6 µM | [4] 22.2 µM | [5] > 100 µM | [6] > 100 µM | [8] 19.9 µM | [9] 48.4 µM | [10] 21.3 µM | [11] 21.6 µM | [12] 32.1 µM | [13] > 100 µM | [14] 19.2 µM | [15] 38.9 µM | [16] 45.5 µM | [17] > 100 µM | [18] > 45.8 µM | [19] 17.6 µM

C=CCCC1(CCP(=O)(c2ccccc2)c2ccccc2)OCCO1
inactive: [1] > 100 µM | [3] > 100 µM | [20] > 100 µM | [5] > 100 µM | [6] > 100 µM | [7] > 100 µM | [8] > 100 µM | [9] > 100 µM | [10] > 100 µM | [11] > 100 µM | [12] > 100 µM | [13] > 100 µM | [14] > 100 µM | [15] > 100 µM | [16] > 100 µM | [17] > 100 µM | [18] > 100 µM | [19] > 100 µM

C#CCCCCC#Cc1ccccc1C(=O)C=[N+]=[N-]
inactive: [1] > 100 µM | [2] > 100 µM | [3] > 100 µM | [4] > 100 µM | [5] > 100 µM | [6] > 100 µM | [7] > 100 µM | [8] 39.8 µM | [9] > 100 µM | [10] > 100 µM | [11] > 100 µM | [12] > 100 µM | [13] > 100 µM | [14] > 100 µM | [15] > 100 µM | [16] > 100 µM | [17] > 100 µM | [18] > 100 µM | [19] > 100 µM

C=CCOC(=O)Cn1ccc(=O)[nH]c1=O
inactive: [1] > 100 µM | [2] > 100 µM | [3] > 100 µM | [20] > 100 µM | [4] > 100 µM | [5] > 100 µM | [6] > 100 µM | [8] > 100 µM | [9] > 100 µM | [10] > 100 µM | [11] > 100 µM | [12] > 100 µM | [13] > 100 µM | [14] > 100 µM | [15] > 100 µM | [16] > 100 µM | [17] > 100 µM | [18] > 100 µM | [19] > 100 µM

CCOC(=O)c1ccc(-c2onc(C)c2Br)[nH]1
inactive: [1] 41.7 µM | [2] 76.6 µM | [3] 37.6 µM | [4] 50.8 µM | [5] 66.1 µM | [6] 33 µM | [7] 21.4 µM | [8] 80.2 µM | [9] > 100 µM | [10] 37.4 µM | [11] 47.2 µM | [13] 39.5 µM | [14] 27.7 µM | [16] > 100 µM | [17] > 100 µM | [18] 37 µM | [19] 30.1 µM

CCc1n[nH]c(=O)n1N=C(c1ccccc1)c1ccccc1
inactive: [1] > 100 µM | [3] > 100 µM | [20] > 100 µM | [4] > 100 µM | [5] > 100 µM | [6] > 100 µM | [7] > 100 µM | [8] > 100 µM | [9] > 100 µM | [10] > 100 µM | [11] > 100 µM | [13] > 100 µM | [14] > 100 µM | [15] > 100 µM | [16] > 100 µM | [17] > 100 µM | [18] 32 µM | [19] > 100 µM

CC(=O)C(C(C)=O)[C@@H]1OC(C)(C)O[C@@H]1[C@H]1COC(C)(C)O1
inactive: [1] > 100 µM | [3] > 100 µM | [4] 53.2 µM | [5] 64.1 µM | [6] > 100 µM | [7] 51.8 µM | [8] 30.2 µM | [9] 60.3 µM | [10] 40.6 µM | [11] 64 µM | [12] > 100 µM | [13] > 100 µM | [14] 43.8 µM | [15] 20.8 µM | [16] 30.1 µM | [17] 61.5 µM | [18] 27.7 µM | [19] 30.9 µM

CC(O)CCNC(=O)Nc1c(C(F)(F)F)cc(-c2ccccc2)[nH]c1=O (stereo not drawn)
inactive: [1] > 100 µM | [2] > 100 µM | [3] > 100 µM | [20] > 100 µM | [4] > 100 µM | [5] > 100 µM | [6] > 100 µM | [7] > 100 µM | [8] > 100 µM | [9] > 100 µM | [10] > 100 µM | [11] > 100 µM | [13] > 100 µM | [14] > 100 µM | [15] > 100 µM | [16] > 100 µM | [17] > 100 µM | [18] > 100 µM | [19] > 100 µM
